The term half-life denotes the time needed for the level to fall by half in the phase considered. A word on the Kd: it is the equilibrium constant for the complex coming apart. The IC50 is the concentration that gives 50% inhibition. By Papp A→B is commonly meant the apparent permeability from the apical to the basolateral side of a cell layer.

The values that follow come from ChEMBL document CHEMBL6134888, “Challenging the "Undruggable"─Targeting STAT3 but Identifying Potent TrkA-Targeted Inhibitors” (J Med Chem, 2025).

The nature of series [1]: Metabolic stability in human liver microsome assessed as half life measured up to 60 mins by HPLC-MS/MS analysis. The class given is ADME. The conditions noted are these: liver microsomes.
For series [2], the target named is Tyrosine-protein kinase ABL1 (Homo sapiens, UniProt P00519). In words: Binding affinity to ABL1 (unknown origin) assessed as dissociation constant.
Sequence of Tyrosine-protein kinase ABL1 (P00519 whole entry): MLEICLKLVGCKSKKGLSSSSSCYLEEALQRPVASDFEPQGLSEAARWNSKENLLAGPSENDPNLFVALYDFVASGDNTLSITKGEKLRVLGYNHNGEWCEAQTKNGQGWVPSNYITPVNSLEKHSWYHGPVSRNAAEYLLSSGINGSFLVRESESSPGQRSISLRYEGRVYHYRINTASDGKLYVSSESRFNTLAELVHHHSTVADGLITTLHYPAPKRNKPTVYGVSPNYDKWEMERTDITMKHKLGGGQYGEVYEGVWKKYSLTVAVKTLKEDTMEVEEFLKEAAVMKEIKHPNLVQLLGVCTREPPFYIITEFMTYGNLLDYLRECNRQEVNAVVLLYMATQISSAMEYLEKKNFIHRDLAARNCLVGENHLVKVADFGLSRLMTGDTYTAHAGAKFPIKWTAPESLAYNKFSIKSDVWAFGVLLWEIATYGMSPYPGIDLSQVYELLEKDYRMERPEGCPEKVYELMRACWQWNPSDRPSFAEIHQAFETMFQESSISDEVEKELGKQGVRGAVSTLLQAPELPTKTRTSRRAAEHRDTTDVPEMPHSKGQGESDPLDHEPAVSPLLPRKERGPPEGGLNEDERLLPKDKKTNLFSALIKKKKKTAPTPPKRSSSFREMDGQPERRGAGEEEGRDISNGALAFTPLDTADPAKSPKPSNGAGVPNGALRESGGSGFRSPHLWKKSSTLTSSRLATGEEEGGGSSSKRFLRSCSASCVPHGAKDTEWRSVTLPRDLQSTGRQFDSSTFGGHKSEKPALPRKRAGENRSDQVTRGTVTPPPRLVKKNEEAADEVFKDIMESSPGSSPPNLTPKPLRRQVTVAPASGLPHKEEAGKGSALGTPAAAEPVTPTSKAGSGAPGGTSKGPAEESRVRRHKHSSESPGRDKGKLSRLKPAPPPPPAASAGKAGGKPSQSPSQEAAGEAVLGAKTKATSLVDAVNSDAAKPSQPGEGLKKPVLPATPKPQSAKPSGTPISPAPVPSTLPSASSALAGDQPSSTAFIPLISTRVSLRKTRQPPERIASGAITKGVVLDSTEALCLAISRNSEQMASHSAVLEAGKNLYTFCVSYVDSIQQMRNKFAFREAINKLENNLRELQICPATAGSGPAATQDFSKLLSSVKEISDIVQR
In series [3] the target is T1, Tyrosine-protein kinase JAK2 (Homo sapiens, UniProt O60674). In words: Binding affinity to JAK2 (unknown origin) assessed as dissociation constant.
T1 sequence (O60674 whole entry): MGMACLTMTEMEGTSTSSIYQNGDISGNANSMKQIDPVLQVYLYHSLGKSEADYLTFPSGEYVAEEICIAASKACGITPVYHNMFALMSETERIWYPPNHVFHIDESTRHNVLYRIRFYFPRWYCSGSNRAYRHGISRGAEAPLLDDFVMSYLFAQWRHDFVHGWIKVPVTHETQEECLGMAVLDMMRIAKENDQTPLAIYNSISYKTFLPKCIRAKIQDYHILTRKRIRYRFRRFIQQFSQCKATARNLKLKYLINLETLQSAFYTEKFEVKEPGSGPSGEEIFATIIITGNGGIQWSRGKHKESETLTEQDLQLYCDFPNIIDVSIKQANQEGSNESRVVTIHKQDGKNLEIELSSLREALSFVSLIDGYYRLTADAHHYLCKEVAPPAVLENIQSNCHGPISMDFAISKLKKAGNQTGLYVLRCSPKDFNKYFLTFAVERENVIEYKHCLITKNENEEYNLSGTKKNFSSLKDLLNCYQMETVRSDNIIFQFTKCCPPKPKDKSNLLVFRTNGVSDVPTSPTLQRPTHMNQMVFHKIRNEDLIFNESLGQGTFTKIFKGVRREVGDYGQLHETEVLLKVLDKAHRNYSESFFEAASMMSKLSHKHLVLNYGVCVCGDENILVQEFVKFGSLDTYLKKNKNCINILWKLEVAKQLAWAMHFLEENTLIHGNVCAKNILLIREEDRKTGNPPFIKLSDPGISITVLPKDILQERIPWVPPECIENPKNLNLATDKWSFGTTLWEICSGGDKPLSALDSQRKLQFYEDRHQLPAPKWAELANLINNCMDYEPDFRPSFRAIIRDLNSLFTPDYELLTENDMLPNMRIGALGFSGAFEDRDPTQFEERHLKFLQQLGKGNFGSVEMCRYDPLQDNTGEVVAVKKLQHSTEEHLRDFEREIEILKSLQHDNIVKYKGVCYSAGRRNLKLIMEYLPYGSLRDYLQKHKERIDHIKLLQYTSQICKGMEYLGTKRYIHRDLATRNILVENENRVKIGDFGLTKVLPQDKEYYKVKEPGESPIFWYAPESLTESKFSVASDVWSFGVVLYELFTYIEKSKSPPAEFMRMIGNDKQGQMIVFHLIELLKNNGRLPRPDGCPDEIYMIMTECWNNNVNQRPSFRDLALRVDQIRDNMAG
In series [4] the target is MAP kinase-activated protein kinase 2 (Homo sapiens, UniProt P49137). Briefly: Inhibition of MK2 (unknown origin).
Sequence of MAP kinase-activated protein kinase 2 (P49137 whole entry): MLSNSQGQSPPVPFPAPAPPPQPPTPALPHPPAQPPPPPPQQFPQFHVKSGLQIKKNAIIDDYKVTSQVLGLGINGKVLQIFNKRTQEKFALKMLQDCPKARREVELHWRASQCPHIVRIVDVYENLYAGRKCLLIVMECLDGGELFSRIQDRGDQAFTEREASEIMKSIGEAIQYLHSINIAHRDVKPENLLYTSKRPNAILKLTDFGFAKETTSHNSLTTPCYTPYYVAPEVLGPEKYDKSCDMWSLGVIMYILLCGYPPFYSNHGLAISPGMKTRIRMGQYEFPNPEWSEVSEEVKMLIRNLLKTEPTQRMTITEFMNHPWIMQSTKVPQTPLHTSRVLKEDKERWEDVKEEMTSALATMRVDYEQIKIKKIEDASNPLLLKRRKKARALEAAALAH
Series [5] deals with LS174T. Briefly: Cytotoxicity against human LS174T cells assessed as effect on cell viability incubated for 72 hrs by resazurin based analysis.
In series [6] the target is BDNF/NT-3 growth factors receptor (Homo sapiens, UniProt Q16620). In words: Binding affinity to TRKB (unknown origin) assessed as dissociation constant by KINOMEscan assay.
Sequence of BDNF/NT-3 growth factors receptor (Q16620 whole entry): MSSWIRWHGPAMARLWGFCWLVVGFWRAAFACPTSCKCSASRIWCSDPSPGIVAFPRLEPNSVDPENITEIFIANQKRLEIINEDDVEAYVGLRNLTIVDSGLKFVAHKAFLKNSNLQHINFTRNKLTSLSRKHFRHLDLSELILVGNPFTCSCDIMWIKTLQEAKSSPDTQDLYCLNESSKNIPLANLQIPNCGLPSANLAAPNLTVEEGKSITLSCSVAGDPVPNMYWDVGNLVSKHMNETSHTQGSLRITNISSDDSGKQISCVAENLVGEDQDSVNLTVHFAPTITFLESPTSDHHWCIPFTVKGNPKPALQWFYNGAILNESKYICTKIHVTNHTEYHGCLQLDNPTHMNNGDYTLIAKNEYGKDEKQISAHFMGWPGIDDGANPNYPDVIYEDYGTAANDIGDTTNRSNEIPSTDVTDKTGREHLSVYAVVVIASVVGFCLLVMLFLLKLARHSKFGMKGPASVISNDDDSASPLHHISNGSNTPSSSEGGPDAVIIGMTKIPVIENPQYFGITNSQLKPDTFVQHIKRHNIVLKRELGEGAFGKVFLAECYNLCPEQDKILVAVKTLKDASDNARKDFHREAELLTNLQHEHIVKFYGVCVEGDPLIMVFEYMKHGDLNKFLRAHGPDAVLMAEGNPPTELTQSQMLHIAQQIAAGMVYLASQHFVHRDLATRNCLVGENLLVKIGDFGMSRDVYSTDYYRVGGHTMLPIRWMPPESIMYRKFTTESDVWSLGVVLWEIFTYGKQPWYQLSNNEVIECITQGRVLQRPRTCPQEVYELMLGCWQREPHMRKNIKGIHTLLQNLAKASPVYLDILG
The test system of series [7] is MDA-MB-231. Briefly: Cytotoxicity against human MDA-MB-231 cells assessed as effect on cell viability incubated for 72 hrs by resazurin based analysis. The following applies: MDA-MB-231, 72 h. In general terms: Resazurin is reduced to fluorescent resorufin, in cell work by metabolically active cells.
The next series has as its system KM12. In words: cells. The following applies: Homo sapiens, KM12, 72 h.
Series [8] is described as follows: Plasma protein binding in human. The following applies: read-out: PPB (converted). The class given is ADME, cell-free.
Series [9] addresses T2, High affinity nerve growth factor receptor (Homo sapiens, UniProt P04629). Briefly: Binding affinity to TRKA (unknown origin) assessed as dissociation constant.
The target of series [10] is T3, Receptor-type tyrosine-protein kinase FLT3 (Homo sapiens, UniProt P36888).
T3 sequence (P36888 whole entry): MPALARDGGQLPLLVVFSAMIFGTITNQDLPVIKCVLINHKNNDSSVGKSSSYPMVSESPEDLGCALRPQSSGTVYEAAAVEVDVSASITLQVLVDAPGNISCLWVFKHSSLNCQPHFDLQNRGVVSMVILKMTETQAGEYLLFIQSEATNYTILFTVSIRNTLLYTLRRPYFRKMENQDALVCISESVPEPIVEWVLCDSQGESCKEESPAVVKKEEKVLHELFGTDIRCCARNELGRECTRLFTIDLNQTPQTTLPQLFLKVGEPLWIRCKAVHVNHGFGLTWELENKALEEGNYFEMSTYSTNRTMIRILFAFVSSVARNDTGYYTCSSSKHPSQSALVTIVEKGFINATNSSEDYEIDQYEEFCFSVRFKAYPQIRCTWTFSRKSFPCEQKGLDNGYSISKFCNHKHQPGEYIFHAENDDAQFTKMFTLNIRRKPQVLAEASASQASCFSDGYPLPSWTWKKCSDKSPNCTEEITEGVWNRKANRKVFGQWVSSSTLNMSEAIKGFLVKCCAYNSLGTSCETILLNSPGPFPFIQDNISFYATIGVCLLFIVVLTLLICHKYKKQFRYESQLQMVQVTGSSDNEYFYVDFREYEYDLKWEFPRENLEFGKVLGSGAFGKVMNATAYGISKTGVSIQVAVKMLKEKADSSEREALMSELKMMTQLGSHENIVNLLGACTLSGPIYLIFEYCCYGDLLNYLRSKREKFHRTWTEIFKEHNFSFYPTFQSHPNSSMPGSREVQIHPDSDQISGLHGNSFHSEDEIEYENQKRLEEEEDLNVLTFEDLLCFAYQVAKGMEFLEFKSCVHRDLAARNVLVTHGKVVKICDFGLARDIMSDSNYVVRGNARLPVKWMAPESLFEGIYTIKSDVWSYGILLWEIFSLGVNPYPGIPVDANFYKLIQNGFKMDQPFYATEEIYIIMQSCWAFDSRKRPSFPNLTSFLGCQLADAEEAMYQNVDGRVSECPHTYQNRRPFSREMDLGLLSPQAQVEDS
In words: Inhibition of FLT3 (unknown origin).

The target of series [11] is T4, Proto-oncogene tyrosine-protein kinase Src (Homo sapiens, UniProt P12931). Briefly: Binding affinity to SRC (unknown origin) assessed as dissociation constant.
T4 sequence (P12931 2-536 limits assumed): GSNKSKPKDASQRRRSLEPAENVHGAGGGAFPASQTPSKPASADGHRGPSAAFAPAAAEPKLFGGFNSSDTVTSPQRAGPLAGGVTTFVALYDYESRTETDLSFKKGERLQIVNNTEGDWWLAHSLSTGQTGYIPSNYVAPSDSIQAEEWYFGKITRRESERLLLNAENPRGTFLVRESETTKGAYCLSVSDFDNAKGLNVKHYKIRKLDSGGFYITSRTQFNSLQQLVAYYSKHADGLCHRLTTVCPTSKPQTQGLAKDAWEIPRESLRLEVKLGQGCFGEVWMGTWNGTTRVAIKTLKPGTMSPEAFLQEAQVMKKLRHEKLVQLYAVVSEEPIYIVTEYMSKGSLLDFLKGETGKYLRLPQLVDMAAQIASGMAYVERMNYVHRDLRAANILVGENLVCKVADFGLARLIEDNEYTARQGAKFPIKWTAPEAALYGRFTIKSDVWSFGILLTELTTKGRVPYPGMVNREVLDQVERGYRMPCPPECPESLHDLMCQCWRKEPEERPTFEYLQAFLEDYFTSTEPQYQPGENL
Series [12] deals with T5, Serine/threonine-protein kinase Nek2 (Homo sapiens, UniProt P51955).
T5 sequence (P51955 whole entry): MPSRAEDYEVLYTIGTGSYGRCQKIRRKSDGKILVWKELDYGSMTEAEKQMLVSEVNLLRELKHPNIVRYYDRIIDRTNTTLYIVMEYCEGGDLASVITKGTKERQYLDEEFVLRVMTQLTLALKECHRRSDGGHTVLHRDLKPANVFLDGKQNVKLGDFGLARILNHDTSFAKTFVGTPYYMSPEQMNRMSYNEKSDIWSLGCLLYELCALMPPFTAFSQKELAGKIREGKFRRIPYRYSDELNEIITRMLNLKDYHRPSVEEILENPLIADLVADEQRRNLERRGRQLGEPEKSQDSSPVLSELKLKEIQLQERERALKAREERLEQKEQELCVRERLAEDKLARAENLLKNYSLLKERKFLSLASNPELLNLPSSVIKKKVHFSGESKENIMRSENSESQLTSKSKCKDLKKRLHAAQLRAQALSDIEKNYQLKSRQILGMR
In words: Inhibition of NEK2 (unknown origin).

The nature of series [13]: Metabolic stability in human liver microsome assessed as intrinsic clearance measured up to 60 mins by HPLC-MS/MS analysis. It counts as ADME. The following applies: liver microsomes, read-out: CLH. (Liver microsomes are a subcellular fraction often used to study metabolism.)
In series [14] the target is T2, High affinity nerve growth factor receptor. Briefly: Binding affinity to TRKA (unknown origin) assessed as dissociation constant by KINOMEscan assay.
Series [15] concerns the target T1, Tyrosine-protein kinase JAK2. In words: Inhibition of JAK2 (unknown origin) by Z-LYTE Kinase assay.
For series [16], the target named is T4, Proto-oncogene tyrosine-protein kinase Src. In words: Inhibition of SRC (unknown origin) by Z-LYTE Kinase assay.
Series [17] concerns LS174T. Briefly: Cytotoxicity against human LS174T cells assessed as cell viability at 100 uM incubated for 72 hrs by resazurin based analysis relative to control. It counts as functional. The following applies: read-out: Activity.
The test system of series [18] is MDA-MB-231. In words: Cytotoxicity against human MDA-MB-231 cells assessed as cell viability at 100 uM incubated for 72 hrs by resazurin based analysis relative to control. The following applies: read-out: Activity. The class given is functional.
Series [19] is described as follows: Apparent permeability of compound across apical to basolateral side in human Caco-2 cells. It counts as ADME, cell-based. (In general: Caco-2 cells form a polarised layer with tight junctions and transporters.)

T2 sequence (P04629 whole entry): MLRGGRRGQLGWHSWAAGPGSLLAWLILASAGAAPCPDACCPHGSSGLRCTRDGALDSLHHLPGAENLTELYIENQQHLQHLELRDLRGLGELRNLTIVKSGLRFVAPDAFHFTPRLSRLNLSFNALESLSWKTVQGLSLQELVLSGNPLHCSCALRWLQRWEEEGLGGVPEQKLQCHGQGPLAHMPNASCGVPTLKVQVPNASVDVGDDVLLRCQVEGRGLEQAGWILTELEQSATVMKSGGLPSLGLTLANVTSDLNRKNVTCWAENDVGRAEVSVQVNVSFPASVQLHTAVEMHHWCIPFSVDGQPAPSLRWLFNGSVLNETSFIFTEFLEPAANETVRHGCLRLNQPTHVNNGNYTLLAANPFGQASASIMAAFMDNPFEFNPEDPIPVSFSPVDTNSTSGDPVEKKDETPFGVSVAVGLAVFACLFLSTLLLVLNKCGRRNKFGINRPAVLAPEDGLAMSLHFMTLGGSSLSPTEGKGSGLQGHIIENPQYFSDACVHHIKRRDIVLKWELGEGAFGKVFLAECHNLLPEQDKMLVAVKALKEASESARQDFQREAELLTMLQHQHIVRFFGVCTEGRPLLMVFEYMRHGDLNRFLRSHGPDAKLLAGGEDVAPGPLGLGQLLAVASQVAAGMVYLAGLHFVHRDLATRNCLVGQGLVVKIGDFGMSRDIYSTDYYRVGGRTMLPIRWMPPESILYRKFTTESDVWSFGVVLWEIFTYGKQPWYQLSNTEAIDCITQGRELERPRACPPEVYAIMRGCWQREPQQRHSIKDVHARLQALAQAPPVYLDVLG
Description for KM12: Cytotoxicity against human KM12 cells assessed as inhibition of cell viability incubated for 72 hrs by resazurin based analysis

Take `CC(Nc1nc(-c2cccc(N(C)C)c2)cnc1N)c1ccccc1` (racemic): the half-life in series [1] was found to be 0.653 h. The Kd came out at 5.3 µM in series [2]; 1.1 µM in series [3]; 0.15 µM in [6]; 0.036 µM in series [9]; 0.64 µM in [11]; 0.052 µM in series [14]. Further, the concentration for half-maximal inhibition (IC50) in series [4] was 0.75 µM; with LS174T [5], greater than 10 µM; in the series on MDA-MB-231 [7], greater than 10 µM; in the series on KM12, less than 0.3 µM; in [10] it was 0.07 µM; in series [12], 0.87 µM. In addition, the fraction unbound in series [8] is 0.004. Moreover, the microsomal CLint in [13] was determined as 177 µL/min/mg.

Consider `CC(Nc1nc(-c2cccnc2)cnc1N)c1ccccc1` (racemic), for which the IC50 came out at 0.663 µM in [15] and 4.52 µM in series [16]. Besides, the Kd in series [6] is 0.18 µM. For the same molecule, the results for the viability at 100 µM with LS174T [17] and in the series with MDA-MB-231 [18] were 83% and 43%, respectively.

Consider `CC(=O)Nc1cccc(-c2cnc(N)c(N[C@H](C)c3ccccc3)n2)c1`, for which the half-life in [1] stood at 1.75 h. In [19], the Papp A→B turned out to be 8 ×10⁻⁶ cm/s. In series [15], this molecule gave an IC50 of 0.177 µM. In [8], the fraction unbound is 0.043. For the same molecule, the microsomal CLint in series [13] is 66.2 µL/min/mg.
